Test results as given in patent US11260101B2, “Repair peptide for use in promoting post-traumatic tissue repair and regeneration, and application thereof” (Jinan University, priority 2017, dated 2022).
Positions of bridges follow the written chain, without caps; N, C: chain ends. No end group written: not given here.

Experiments:
[1] = system: mouse fibroblasts Balb/c 3T3; assay: Proliferation-promoting effect on fibroblasts Balb/c 3T3, CCK-8 method; format: cell-based; conditions: 24 hours treatment
Procedure: 2. Detection of the Proliferation-Promoting Effects of Repair Peptides R1, R2, R3 and R4, and the bFGF Respectively on Fibroblasts Balb/c 3T3 by Using the CCK-8 Method
(§1) The Ballb/c 3t3 cells were plated in 96-well plates at 4000 cells per well. After the cells were adhered and then starved for 24 hours, the cells were treated for 24 hours with the repair peptides R1, R2, R3 or R4, or the bFGF respectively at concentrations increased by 5 times. After that, the cells were treated with a CCK-8 reagent, and the optical density (OD) value of each well was detected by an enzyme-labeled instrument.

[2] = system: human umbilical vein endothelial cells (HUVEC); assay: Proliferation-promoting effect on HUVEC, CCK-8 method; format: cell-based; conditions: 24 hours treatment
Procedure: 3. Detection of the Proliferation-Promoting Effects of Repair Peptides R1, R2, R3 and R4, and the bFGF Respectively on Human Umbilical Vein Endothelial Cells (HUVEC) by Using the CCK-8 Method
as §1, with “HUVEC” for “Ballb/c 3t3”, “with” for “with the”, “OD” for “optical density (OD)”

[3] = system: chick embryo chorioallantoic membrane; assay: Angiogenesis in chick embryo chorioallantoic membrane, R1-R4 at the same concentration; format: in vivo; conditions: 100 μL at 100 ng/mL, three days culture
Procedure: 5. Detection of the Angiogenesis in the Chick Embryo Chorioallantoic Membrane Promoted by Repair Peptides R1, R2, R3 and R4
A fertilized egg cultured for 5 days was placed with the bigger head of the egg up, then the eggshell was removed. 100 μL of repair peptides R1, R2, R3 and R4 at concentration of 100 ng/mL was respectively added drop-wise into the exposed chick embryo chorioallantoic membrane, and the opening was sealed with clean filter paper. A blank control group treated with PBS solution was set up. Further cultured for three days, then the chick embryo chorioallantoic membrane was peeled off, observed under a stereoscope and photographed, and the image was analyzed by using the software, ImageJ plus.

skin wound = assay: Skin wound healing after back incision; format: in vivo, Balb/c mice; conditions: 10 μL drop-wise into 1-cm sutured incisions once a day
Procedure: 6. Detection of the Wound Healing in […] Skin Promoted by Repair Peptides R1, R2, R3 and R4
Balb/c mice were anesthetized by intra-peritoneal injection with 1% pentobarbital sodium (100 mg/kg), and the back was depilated and disinfected using conventional sterilization methods with 1% iodophor and 75% alcohol. Both sides of the back were cut symmetrically leaving 1-cm incisions. The incisions were sutured with two needles in the sterilized surgery. Then 10 μL of repair peptides R1, R2, R3 and R4 are respectively added drop-wise into the wounds. The wounds were open with no cotton yarn covered. A blank control group treated with PBS solution was set up.

FGFR2 = FGFR2 (Homo sapiens, UniProt P21802); assay: Affinity to FGFR2 by isothermal titration calorimetry (ITC); format: binding; conditions: for Kd: read-out: dissociation constant Kd with FGFR2
Text: 1. Detection of the Affinity Between the Repair Peptide R1 and FGFR2 by Using the ITC Method
(The K denoted the affinity constant, and the Kd denoted the dissociation constant. The larger the K was and the smaller the Kd was, the stronger the affinity was).

[4] = system: chick embryo chorioallantoic membrane; assay: Angiogenesis in chick embryo chorioallantoic membrane, R1 at increasing concentrations; format: in vivo; conditions: 10 μL at concentrations increased by 25 times, three days culture
Procedure: 4. Angiogenesis in the Chick Embryo Chorioallantoic Membrane Promoted by the Repair Peptide R1
A fertilized egg cultured for 5 days was placed with the bigger head of the egg up. The eggshell was removed, and a silica gel ring was placed in the middle of the exposed chick embryo chorioallantoic membrane. 10 μL of the repair peptide R1 at concentrations increased by 25 times was respectively added drop-wise into the silica gel ring, and the opening was sealed with clean filter paper. A blank control group treated with PBS solution was set up. Further cultured for three days, then the chick embryo chorioallantoic membrane was peeled off, observed under a stereoscope and photographed, and the image was analyzed by using the software, ImageJ plus.

[5] = lower concentration groups (≤0.16 μM)

Chain of FGFR2 (P21802 22-821, species assumed): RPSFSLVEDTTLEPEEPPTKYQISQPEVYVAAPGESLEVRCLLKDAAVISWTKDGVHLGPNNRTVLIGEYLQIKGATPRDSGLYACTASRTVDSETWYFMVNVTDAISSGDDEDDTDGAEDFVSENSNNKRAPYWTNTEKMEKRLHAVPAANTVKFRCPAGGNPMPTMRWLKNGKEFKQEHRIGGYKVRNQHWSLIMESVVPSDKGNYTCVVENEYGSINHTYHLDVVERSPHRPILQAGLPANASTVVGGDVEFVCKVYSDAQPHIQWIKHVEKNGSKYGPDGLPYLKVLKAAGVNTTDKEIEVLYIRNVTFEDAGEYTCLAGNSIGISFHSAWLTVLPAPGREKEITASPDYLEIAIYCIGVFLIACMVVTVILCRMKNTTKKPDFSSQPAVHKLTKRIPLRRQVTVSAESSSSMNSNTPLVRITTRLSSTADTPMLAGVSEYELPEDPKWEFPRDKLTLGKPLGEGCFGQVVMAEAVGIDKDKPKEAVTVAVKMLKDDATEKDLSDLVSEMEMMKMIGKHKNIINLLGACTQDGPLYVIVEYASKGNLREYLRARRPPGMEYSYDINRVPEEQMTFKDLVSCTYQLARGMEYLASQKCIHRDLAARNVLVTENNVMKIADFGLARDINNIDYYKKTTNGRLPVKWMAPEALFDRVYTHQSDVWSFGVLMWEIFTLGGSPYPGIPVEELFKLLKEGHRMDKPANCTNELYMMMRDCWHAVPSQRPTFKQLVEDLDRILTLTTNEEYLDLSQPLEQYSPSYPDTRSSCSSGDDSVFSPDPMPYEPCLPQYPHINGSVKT

Row | Substance | proliferation-promoting activity on Balb/c 3T3 (OD, CCK-8) ([1]; higher concentration groups) | proliferation-promoting activity on Balb/c 3T3 (OD, CCK-8) ([1]; lower concentration groups) | proliferation-promoting activity on HUVEC (OD, CCK-8) ([2]; higher concentration groups) | proliferation-promoting activity on HUVEC (OD, CCK-8) [2, 5] | capillaries in the chick embryo chorioallantoic membrane [3] | skin wound healing (skin wound) | affinity constant K with FGFR2 (FGFR2) [M⁻¹] | affinity to FGFR2 relative to that of bFGF (FGFR2; R1-FGFR2 versus bFGF-FGFR2) | Kd (FGFR2) [µM] | capillaries in the chick embryo chorioallantoic membrane [4]
1 | CGPANVETC (disulfide 1-9 (inferred)) [R4] | still had a proliferation-promoting activity | comparable proliferation-promoting activity | still had a proliferation-promoting activity | comparable proliferation-promoting activity | significantly increased | the healing was sped up |  |  |  | 
2 | GPANVEKEKEK (R3) | still had a proliferation-promoting activity | comparable proliferation-promoting activity | still had a proliferation-promoting activity | comparable proliferation-promoting activity | significantly increased | the healing was sped up |  |  |  | 
3 | GPANVET [R1, GPANVET] | still had a proliferation-promoting activity | comparable proliferation-promoting activity | still had a proliferation-promoting activity | comparable proliferation-promoting activity | significantly increased | the healing was sped up | 7.35e+08 ± 2.1e+08 | about 4,500 times | ~0.00137 | significantly increased with the increasing dose
4 | KVKVGPANVKVKV (R2) | still had a proliferation-promoting activity | comparable proliferation-promoting activity | still had a proliferation-promoting activity | comparable proliferation-promoting activity | significantly increased | the healing was sped up |  |  |  | 
5 | bFGF: recombinant basic Fibroblast Growth Factor (155 amino acids), clinically applied to wounds and burns | cell proliferation was inhibited | comparable proliferation-promoting activity | cell proliferation was inhibited | comparable proliferation-promoting activity |  |  | 162000 ± 25000 |  | ~6.17 | 
